Peptide text beside a SMILES is read from it.
Legend:
[1] = target: T1, Neuromedin-K receptor (Cavia porcellus) (UniProt P30098); assay: Inhibitory activity against binding of [125I][MePhe7]-NKB SP to tachykinin NK-3 receptor in guinea pig cortical membranes at concentration 10 uM; format: cell membranes
T1 sequence (whole entry): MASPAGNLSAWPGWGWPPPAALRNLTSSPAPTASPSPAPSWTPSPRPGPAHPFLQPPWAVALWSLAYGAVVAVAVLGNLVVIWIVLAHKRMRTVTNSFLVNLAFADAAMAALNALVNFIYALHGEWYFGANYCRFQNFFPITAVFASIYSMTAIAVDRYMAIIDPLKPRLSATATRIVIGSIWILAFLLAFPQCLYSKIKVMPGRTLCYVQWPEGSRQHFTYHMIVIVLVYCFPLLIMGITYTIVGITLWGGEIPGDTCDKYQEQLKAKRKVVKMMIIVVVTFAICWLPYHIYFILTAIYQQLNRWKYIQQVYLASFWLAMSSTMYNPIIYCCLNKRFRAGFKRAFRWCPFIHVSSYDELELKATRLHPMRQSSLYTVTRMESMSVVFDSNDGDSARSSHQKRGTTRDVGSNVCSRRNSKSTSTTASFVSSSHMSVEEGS

Substance-P receptor [2] = target: T2, Substance-P receptor (Homo sapiens, UniProt P25103); assay: Inhibitory activity against binding of [125I]Bolton-Hunter SP to tachykinin NK-1 receptor in human lymphoma IM9 cells.; format: cell-based, IM-9
Neuromedin-K receptor = target: T3, Neuromedin-K receptor (Cavia porcellus, UniProt P30098); assay: Inhibitory activity against binding of [125I][MePhe7]-NKB SP to tachykinin NK-3 receptor in guinea pig cortical membranes.; format: cell membranes
T3 sequence (P30098 whole entry): T1 sequence (whole entry)

Substance-P receptor [3] = target: T2, Substance-P receptor; assay: Inhibitory activity against binding of [125I]Bolton-Hunter SP to tachykinin NK-1 receptor in human lymphoma IM9 cells; format: cell-based, IM-9
Substance-P receptor [4] = target: T2, Substance-P receptor; assay: Inhibitory activity against binding of [125I]Bolton-Hunter SP to tachykinin NK-1 receptor in human lymphoma IM9 cells at concentration 10 uM; format: cell-based; conditions: IM-9

T2 sequence (P25103 whole entry): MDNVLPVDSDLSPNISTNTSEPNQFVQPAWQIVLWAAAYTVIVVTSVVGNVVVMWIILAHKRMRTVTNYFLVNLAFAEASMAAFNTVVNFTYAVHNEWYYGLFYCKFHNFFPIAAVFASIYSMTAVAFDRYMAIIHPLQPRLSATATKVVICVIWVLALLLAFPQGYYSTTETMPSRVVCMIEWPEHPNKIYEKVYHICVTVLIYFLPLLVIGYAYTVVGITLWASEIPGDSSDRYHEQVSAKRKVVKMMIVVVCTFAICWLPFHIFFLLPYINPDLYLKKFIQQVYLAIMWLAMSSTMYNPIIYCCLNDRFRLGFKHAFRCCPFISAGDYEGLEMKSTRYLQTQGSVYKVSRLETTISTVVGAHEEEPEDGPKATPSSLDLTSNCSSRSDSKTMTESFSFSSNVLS

| inhibition [1] | IC50 (Substance-P receptor [2]) | IC50 (Neuromedin-K receptor) | IC50 (Substance-P receptor [3]) | inhibition (Substance-P receptor [4]) | Compound |
| --- | --- | --- | --- | --- | --- |
| < 10% | 3.5 µM | – | – | – | O=C1C(Cc2c[nH]c3ccccc23)OCCN1Cc1ccccc1 (configuration not stated) |
| – | – | 0.717 µM | – | – | CSCC[C@H](NC(=O)[C@H](CC(C)C)NC(=O)CNC(=O)[C@H](Cc1ccccc1)NC(=O)[C@H](Cc1ccccc1)NC(=O)[C@H](CCC(N)=O)NC(=O)[C@H](CCC(N)=O)NC(=O)[C@@H]1CCCN1C(=O)[C@H](CCCCN)NC(=O)[C@@H]1CCCN1C(=O)[C@@H](N)CCCN=C(N)N)C(N)=O [SUBSTANCE P] |
| < 10% | – | – | 4.2 µM | – | NC(=O)[C@H](Cc1ccccc1)NC(=O)[C@H](Cc1c[nH]c2ccccc12)NC(=O)OCc1ccccc1 (HELM PEPTIDE1{[O=C(OCc1ccccc1)[*:2]].W.F.[am]}$$$$V2.0) |
| – | – | 4.09 µM | – | < 10% | O=C1C(Cc2ccccc2)OCCN1Cc1ccccc1 (configuration not stated) |
